From patent US7335723B2, “Melanin-concentrating hormone antagonists” (priority 2001, dated 2008)
pEC50, pIC50: −log10 of the molar value. Where a SMILES comes first, the peptide text is derived from it. Bridges are numbered along the chain shown (N, C = ends). [ ]: non-standard residue; d: D form. Ava = NCCCCC(=O)O

Tests used:
human MCH-2R [1] = molecular target: T1, human MCH-2R (Homo sapiens, UniProt Q969V1); assay: Aequorin bioluminescence functional assay, MCH-2R agonist activity; conditions: for MCH-2R Agonist Activation %: 293-AEQ17 cells expressing human MCH-2R
rat MCH-1R [2] = molecular target: T2, rat MCH-1R (Rattus norvegicus, UniProt P97639); assay: Aequorin bioluminescence functional assay, MCH-1R agonist activity; conditions: for MCH-1R Agonist Activation %: 293-AEQ17 cells expressing rat MCH-1R
human MCH-1R = human MCH-1R (Homo sapiens, UniProt Q99705); assay: MCH-1R binding assay, inhibition of [125I]-human MCH binding to membranes
Procedure: (§1) Cell membranes were prepared on ice. Each T-75 flask was rinsed twice with 10 ml of Enzyme-free Cell Dissociation Buffer (Specialty Media, Lavallette, N.J.), and the cell monolayer was detached in an additional 10 ml of Enzyme-free Cell Dissociation Buffer by incubation at room temperature for 10 minutes. Dissociated cells were centrifuged (500×g for 10 minutes at 4° C.), resuspended in 5 ml homogenization buffer (10 mM Tris-HCl, pH 7.4, 0.01 mM Pefabloc, 10 μM phosphoramidon, 40 μg/ml bacitracin) and then homogenized using a glass homogenizer (10-15 strokes). The homogenate was centrifuged for 10 minutes (1,000×g at 4° C.). The resulting supernatant was then centrifuged at 38,700×g for 15 minutes at 4° C. Pelleted membranes were resuspended (passed through 25 gauge needle 5 times), snap-frozen on liquid nitrogen, and stored at −80° C. until use.
Bound radioligand was separated by rapid vacuum filtration (Packard Filtermate 96-well cell harvester) through GF/C filters pretreated for 1 hour with 1% polyethylenimine. After application of the membrane suspension to the filter, the filters were washed 3 times with 3 ml each of ice-cold 50 mM Tris-HCl, pH 7.4, 10 mM MgCl2, 2 mM EDTA, 0.04% Tween 20 and the bound radioactivity on the filters was quantitated by scintillation counting (TopCount device).
For the SPA-based assay, WGA-PVT beads (NEN Life Sciences Products) were resuspended in Dulbecco's PBS with calcium and magnesium (500 mg beads in 4 ml PBS). […] The suspension was mixed gently for 20 minutes, 12.3 ml of assay buffer and protease inhibitors were added (final concentration given): 2 μg/ml leupeptin, 10 μM phosphoramidon, 40 μg/ml bacitracin, 5 μg/ml aprotinin, 0.1 mM Pefabloc.
Coated beads were kept on ice until use.

human MCH-2R [3] = molecular target: T1, human MCH-2R; assay: MCH-2R binding assay, inhibition of [125I]-human MCH binding to membranes; set-up: expressed in transfected cells; host or cells: 293-AEQ17 (aequorin-expressing HEK-293 reporter line); conditions: inhibition of [125I]-human MCH (Phe13, Tyr19) binding, cell membranes
Procedure: as §1
Bound radioligand was separated by rapid vacuum filtration (Packard Filtermate 96-well cell harvester) through GF/C filters pretreated for 1 hour with 1% polyethylenimine. After application of the membrane suspension to the filter, the filters were washed 3 times with 3 ml each of ice-cold 50 mM Tris-HCl, pH 7.4, 10 mM MgCl2, 2 mM EDTA, 0.04% Tween 20 and the bound radioactivity on the filters was quantitated by scintillation counting (TopCount device). […]

rat MCH-1R [4] = molecular target: T2, rat MCH-1R; assay: Antagonist assay, 293-AEQ17 cells expressing rat MCH-1R; type: cell-based; set-up: expressed in transfected cells; host or cells: 293-AEQ17 (aequorin-expressing HEK-293 reporter line)
Procedure: Cells were grown in DMEM (high glucose) supplemented with 10% FBS (Hyclone), 500 μg/ml G418, 200 μg/ml hygromycin and 25 mM HEPES in T75 flasks.
The assay itself involved charging apoaequorin with coelenterazine cp(Molecular Probes, C-14260) and was performed as follows:
1. Confluent T75 flasks are rinsed 1× with 12 ml Hams F12 medium+300 μM glutathione+0.1% FBS.
2. The cells were charged by adding 8 ml Hams F12+0.1% FBS+300 μM glutathione+10 μM coelenterazine, incubate at 37° C. for 1 hour.
4. ECB (6 ml) is added to the flask and the cells are dissociated with a rubber-tipped scraper, centrifuged for 5 minutes at 2500 rpm and the cell pellet resuspended in 5 ml ECB. The cells are counted and diluted to 5×10^5/ml.
Binding and agonist activity at the MCH-1R and MCH-2R was determined as described in Examples 2 and 3. Antagonist IC50 was determined as described in Example 4. Kb was determined using the procedures described in Trends in Pharmacol. Sci. 14:237-239, 1993.

human MCH-1R, sequence (Q99705 whole entry): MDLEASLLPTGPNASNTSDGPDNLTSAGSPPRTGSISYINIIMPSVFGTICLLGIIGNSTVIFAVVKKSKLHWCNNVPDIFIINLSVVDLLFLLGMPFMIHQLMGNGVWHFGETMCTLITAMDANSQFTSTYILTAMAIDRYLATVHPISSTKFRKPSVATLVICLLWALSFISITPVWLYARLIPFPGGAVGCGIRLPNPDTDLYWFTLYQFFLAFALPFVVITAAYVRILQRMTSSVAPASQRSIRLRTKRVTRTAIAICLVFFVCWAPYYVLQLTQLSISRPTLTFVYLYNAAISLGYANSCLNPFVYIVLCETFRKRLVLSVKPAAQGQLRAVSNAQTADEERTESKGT
T1 sequence (Q969V1 whole entry): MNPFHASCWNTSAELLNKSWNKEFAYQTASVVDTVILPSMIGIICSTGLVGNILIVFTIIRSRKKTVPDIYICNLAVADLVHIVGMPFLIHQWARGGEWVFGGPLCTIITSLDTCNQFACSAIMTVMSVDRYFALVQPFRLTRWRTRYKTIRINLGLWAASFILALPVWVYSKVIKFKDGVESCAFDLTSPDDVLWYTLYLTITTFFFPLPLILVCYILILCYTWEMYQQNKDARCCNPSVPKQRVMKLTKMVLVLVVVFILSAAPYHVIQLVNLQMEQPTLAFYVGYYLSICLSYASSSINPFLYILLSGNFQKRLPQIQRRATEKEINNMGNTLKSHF
T2 sequence (P97639 whole entry): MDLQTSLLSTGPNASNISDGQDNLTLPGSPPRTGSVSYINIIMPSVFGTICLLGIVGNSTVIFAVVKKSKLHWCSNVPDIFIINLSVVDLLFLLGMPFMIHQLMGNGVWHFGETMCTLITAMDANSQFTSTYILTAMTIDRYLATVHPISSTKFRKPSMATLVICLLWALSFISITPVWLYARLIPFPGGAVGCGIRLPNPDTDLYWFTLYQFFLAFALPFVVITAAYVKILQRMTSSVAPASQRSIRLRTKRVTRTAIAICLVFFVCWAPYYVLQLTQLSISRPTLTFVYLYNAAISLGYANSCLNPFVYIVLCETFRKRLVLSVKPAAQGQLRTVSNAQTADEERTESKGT

CSCC[C@@H]1NC(=O)[C@@H](NC(=O)[C@H](CCCNC(=N)N)NC(C)=O)CSSC[C@@H](C(N)=O)NC(=O)[C@@H]2CCCN2C(=O)[C@H](CCCNC(=N)N)NC(=O)[C@H](Cc2ccc(O)cc2)NC(=O)[C@H](C(C)C)NC(=O)[C@H](CCCNC(=N)N)NC(=O)CCCCNC(=O)CCCCNC1=O [SEQ. ID. NO. 3] (Ac-RCM[Ava][Ava]RVYRPC-NH2; disulfide 2-11; C-terminus assumed)
pEC50 (human MCH-2R [1]): < 5.00
pEC50 (rat MCH-1R [2]): 6.23
MCH-1R Agonist Activation % (rat MCH-1R [2]): 82%
pIC50 (human MCH-1R): 8.43
pIC50 (human MCH-2R [3]): 6.46

CSCC[C@@H]1NC(=O)[C@@H](NC(=O)CCCNC(=N)N)CSSC[C@@H](C(N)=O)NC(=O)CCCCNC(=O)CCCCNC(=O)[C@H](Cc2ccc(O)cc2)NC(=O)[C@H](C(C)C)NC(=O)[C@H](CCCNC(=N)N)NC(=O)CNC(=O)[C@H](CC(C)C)NC1=O [SEQ. ID. NO. 12]
pEC50 (human MCH-2R [1]): < 5.00
MCH-2R Agonist Activation % (human MCH-2R [1]): 14%
pEC50 (rat MCH-1R [2]): < 5.00
MCH-1R Agonist Activation % (rat MCH-1R [2]): 6%
pIC50 (human MCH-1R): 8.10
pIC50 (human MCH-2R [3]): 5.40

CSCC[C@@H]1NC(=O)[C@@H](NC(=O)[C@@H](CCCNC(=N)N)NC(C)=O)CSSC[C@@H](C(N)=O)NC(=O)CCCCNC(=O)CCCCNC(=O)[C@H](Cc2ccc(O)cc2)NC(=O)[C@H](C(C)C)NC(=O)[C@H](CCCNC(=N)N)NC(=O)CCCCNC(=O)CCCCNC1=O [SEQ. ID. NO. 33] (Ac-[dR]CM[Ava][Ava]RVY[Ava][Ava]C-NH2; disulfide 2-11 (inferred); C-terminus assumed)
pIC50 (rat MCH-1R [4]): 7.86
Kb (rat MCH-1R [4]; determined per Trends in Pharmacol. Sci. 14:237-239, 1993): 6 nM
pEC50 (human MCH-2R [1]): < 5.00
MCH-2R Agonist Activation % (human MCH-2R [1]): 28%
pEC50 (rat MCH-1R [2]): < 5.00
MCH-1R Agonist Activation % (rat MCH-1R [2]): 2%
pIC50 (human MCH-1R): 6.87
